This is an account of results in US10647665B2, “Biaryl urea derivative or salt thereof and preparation process and use for the same” (Fudan University, priority 2016, dated 2020).

Assay [1] addresses RORγ receptor (B-RORγ LBD) (Homo sapiens (Human), UniProt P51449). Briefly: Inhibitory activity on RORγ receptor in vitro by fluorescence resonance energy transfer (FRET). The note with it: average of at least two independent tests. In kind it is biochemical. The procedure:
The inhibitory activity of compounds on RORγ receptor was determined by fluorescence resonance energy transfer (FRET) experiments. The inhibitory activity was expressed by half-inhibitory concentration (IC50).
1. Preparation of RORγ Buffer Solution
10 mL of DTT and 100 mL buffer solution were gently mixed together and ready to use.
2. Preparation of Compound Solution
3. Preparation of Protein Mixture a. 40 nM B-RORγ LBD solution and 20 nM SA-APC solution were gently mixed together. The reaction mixture was incubated for 15 minutes at room temperature. Then 400 nM Biotin was added to the described above mixture. After gently mixed together, the resulting mixture was incubated for 10 minutes at room temperature. […]
b. 40 nM Bioin-SRC1 solution and 10 nM SA-eu solution were gently mixed together, and the reaction mixture was incubated for 15 minutes at room temperature. Then 200 nM Biotin was added to the described above mixture. After gently mixed together, the resulting mixture was incubated for 10 minutes at room temperature. […]
d. A mixture of 0.1 μM alternative agonist
N-(2-chloro-6-fluorophenyl)-N-((20-methoxy-[1,10-biphenylyl]-4-substituted)methyl)benzenesulfonamide, 25 μL B-RORγ LBD/SA-APC and Bioin-SRC1/SA-eu mixture solution with test compound were added to one of the well of a 384-well plate, then they were centrifuged for 1 minute at 1000 rpm, and incubated at room temperature for 1 hour. The values were read on the Envision microplate detector and IC50 was calculated.

In assay [2] the test system is Mouse Th17 cell differentiation. As to the kind of experiment: Inhibition of mouse Th17 cell differentiation (IL-17 by intracellular staining and flow cytometry). The note with it: compound at 0.3 μM, mouse spleen CD4+ T cells, 96 hours. In kind it is cell-based. The procedure: Experimental method: Mouse spleen CD4^+ T cells were isolated and differentiated into Th17 cells. CD4^+ T cells were cultured in the environment of anti-CD3 (0.25 μg/mL), anti-CD28 (1 μg/mL), anti-IL4 (2 μg/mL), anti-IFN-γ (2 μg/mL), TGF-β (5 ng/mL), and IL6 (20 ng/mL), and then the test compound was added. After 96 hours, the differentiation efficiency of Th17 was analyzed. Before collection of cells, PMA at 50 ng/mL and ionomycin at 500 ng/mL were added for stimulation for 4 hours, and the ratio of IL-17 was detected by intracellular staining and flow cytometry. At the same time, we used Live/Dead Cell Dye (Invitrogen) staining method to analyze the cell survival rate, to judge whether the drug had toxicity to cells, and determine the inhibition rate of the compound at a concentration of 0.3 μM on IL-17 differentiation by Th 17 cells.
For orientation: Flow cytometry measures light scatter and fluorescence of single cells or particles in a stream.

The term IC50 denotes the concentration at which inhibition is half-maximal. A high value points to weaker potency in that assay. The term inhibition denotes the share of the control response that was lost under treatment. Lower therefore signals a weak effect.

Chain of RORγ receptor (B-RORγ LBD) (P51449 269-508): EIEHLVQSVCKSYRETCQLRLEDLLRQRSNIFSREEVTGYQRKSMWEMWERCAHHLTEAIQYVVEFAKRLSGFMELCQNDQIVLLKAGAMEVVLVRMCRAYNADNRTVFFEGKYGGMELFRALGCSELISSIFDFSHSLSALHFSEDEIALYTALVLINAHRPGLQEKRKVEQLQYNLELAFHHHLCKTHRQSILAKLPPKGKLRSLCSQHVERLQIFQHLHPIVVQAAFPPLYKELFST

In assay [1], `CCS(=O)(=O)c1ccc(CNC(=O)Nc2ccc(-c3ccccc3)cc2)cc1` [Example 1-2, 1-([1,1′-biphenyl]-4-yl)-3-(4-(ethylsulfonyl)benzyl)urea] showed an IC50 of 5000 to 50000 nM. This molecule also registered an inhibition at 0.3 µM in assay [2] of 0 to 40%.

`CCS(=O)(=O)c1ccc(CNC(=O)Nc2ccc(-c3ccccc3OC(F)(F)F)c(Cl)c2)cc1` [Example 1-3, 1-(2-chloro-2′-(trifluoromethoxy)-[1,1′-biphenyl]-4-yl)-3-(4-(ethylsulfonyl)benzyl)urea] came in with an IC50 in assay [1] of 500 to 5000 nM. In addition, in assay [2], the inhibition at 0.3 µM lay within 40 to 70%.

On to `CS(=O)(=O)c1ccc(CNC(=O)Nc2cc(Cl)c(-c3ccccc3OC(F)(F)F)c(Cl)c2)cc1` [Example 1-4, 1-(2,6-dichloro-2′-(trifluoromethoxy)-[1,1′-biphenyl]-4-yl)-3-(4-(methylsulfonyl)benzyl)urea], for which the IC50 in assay [1] is under 500 nM. Also, in assay [2], the inhibition at 0.3 µM was 40 to 70%.

In the case of `CNS(=O)(=O)c1ccc(CNC(=O)Nc2cc(Cl)c(-c3ccccc3OC(F)(F)F)c(Cl)c2)cc1` [Example 1-5, 4-((3-(2,6-dichloro-2′-(trifluoromethoxy)-[1,1′-biphenyl]-4-yl)ureido)methyl)-N-methylbenzenesulfonamide], the IC50 in assay [1] was under 500 nM. This molecule displayed an inhibition at 0.3 µM in assay [2] of 70 to 100%.

For `NS(=O)(=O)c1ccc(CNC(=O)Nc2cc(Cl)c(-c3ccccc3OC(F)(F)F)c(Cl)c2)cc1` [Example 1-6, 4-((3-(2,6-dichloro-2′-(trifluoromethoxy)-[1,1′-biphenyl]-4-yl)ureido)methyl)benzenesulfonamide], the IC50 in assay [1] was under 500 nM. The inhibition at 0.3 µM in assay [2] fell in the range of 40 to 70%.

The molecule `CC(=O)NS(=O)(=O)c1ccc(CNC(=O)Nc2cc(Cl)c(-c3ccccc3OC(F)(F)F)c(Cl)c2)cc1` [Example 1-7, N-((4-((3-(2,6-dichloro-2′-(trifluoromethoxy)-[1,1′-biphen-1,1′-biphenyl]-4-yl)ureido)methyl)phenyl)sulfonyl)acetamide] yielded an IC50 in assay [1] of under 500 nM. Also, the inhibition at 0.3 µM in assay [2] lay in the range of 0 to 40%.

On to `O=C(NCc1ccc(C(=O)O)cc1)Nc1cc(Cl)c(-c2ccccc2OC(F)(F)F)c(Cl)c1` [Example 1-14, 4-((3-(2,6-dichloro-2′-(trifluoromethoxy)-[1,1′-biphenyl]-4-yl)ureido)methyl)benzoic acid], for which the IC50 in assay [1] fell in the range of 500 to 5000 nM. In addition, in assay [2], the inhibition at 0.3 µM was 0 to 40%.

In turn, `O=C(O)Cc1ccc(CNC(=O)Nc2cc(Cl)c(-c3ccccc3OC(F)(F)F)c(Cl)c2)cc1` [Example 1-15, 2-(4-((3-(2,6-dichloro-2′-(trifluoromethoxy)-[1,1′-biphenyl]-4-yl)ureido)methyl)phenyl)acetic acid] came in with an inhibition at 0.3 µM in assay [2] of 70 to 100%.

Take `N#Cc1cc(NC(=O)NCc2ccc(CC(=O)O)cc2)cc(Cl)c1-c1ccccc1OC(F)(F)F` [Example 1-16, 2-(4-((3-(2-chloro-6-cyano-2′-(trifluoromethoxy)-[1,1′-biphenyl]-4-yl)ureido)methyl)phenyl)acetic acid]: the IC50 in assay [1] is under 500 nM. This molecule also came in with an inhibition at 0.3 µM in assay [2] of 0 to 40%.

In assay [1], `Cc1cc(NC(=O)NCc2ccc(CC(=O)O)cc2)cc(Cl)c1-c1ccccc1OC(F)(F)F` [Example 1-17, 2-(4-((3-(2-chloro-6-methyl-2′-(trifluoromethoxy)-[1,1′-biphenyl]-4-yl)ureido)methyl)phenyl)acetic acid] yielded an IC50 of under 500 nM. In assay [2], the inhibition at 0.3 µM lay within 70 to 100%.

Turning to `O=C(O)Cc1ccc(CNC(=O)Nc2ccc(-c3ccccc3OC(F)(F)F)c(Cl)c2)cc1` [Example 1-18, 2-(4-((3-(2-chloro-2′-(trifluoromethoxv)-[1,1′-biphenyl]-4-yl)ureido)methyl)phenyl)acetic acid], in assay [1], the IC50 lay in the range of 500 to 5000 nM. Further, the inhibition at 0.3 µM in assay [2] lay in the range of 0 to 40%.

With `O=C(O)Cc1ccc(CNC(=O)Nc2cc(F)c(-c3ccccc3OC(F)(F)F)c(F)c2)cc1` [Example 1-19, 2-(4-((3-(2,6-difluoro-2′-(trifluoromethoxy)-[1,1′-biphenyl]-4-yl)ureido)methyl)phenyl)acetic acid], the IC50 in assay [1] was 500 to 5000 nM. Further, the inhibition at 0.3 µM in assay [2] was 0 to 40%.

The molecule `O=C(O)Cc1ccc(CNC(=O)Nc2cc(Cl)c(-c3ccccc3OC(F)F)c(Cl)c2)cc1` [Example 1-20, 2-(4-((3-(2,6-dichloro-2′-(difluoromethoxy)-[1,1′-biphenyl]-4-yl)ureido)methyl)phenyl)acetic acid] came in with an IC50 in assay [1] of under 500 nM. In assay [2], the inhibition at 0.3 µM lay in the range of 0 to 40%.

With `Cc1cc(NC(=O)NCc2ccc(CC(=O)O)cc2)cc(C)c1-c1ccccc1OC(F)F` [Example 1-21, 2-(4-((3-(2′-(difluoromethoxy)-2,6-dimethyl-[1,1′-biphenyl]-4-yl)ureido)methyl)phenyl)acetic acid], in assay [1], the IC50 is under 500 nM. Moreover, the inhibition at 0.3 µM in assay [2] was 0 to 40%.

Consider `Cn1cc(-c2cc(NC(=O)NCc3ccc(CC(=O)O)cc3)ccc2-c2ccccc2OC(F)(F)F)cn1` [Example 1-22a, 2-(4-((3-(2-(1-methyl-1H-pyrazol-4-yl)-2′-(trifluoromethoxy)-[1,1′-biphenyl]-4-yl)ureido)methyl)phenyl)acetic acid], for which the IC50 in assay [1] lay within 500 to 5000 nM. In assay [2], this molecule showed an inhibition at 0.3 µM of 0 to 40%.

Molecule `Cn1cc(-c2cccc(OC(F)(F)F)c2-c2ccc(NC(=O)NCc3ccc(CC(=O)O)cc3)cc2)cn1` [Example 1-22b, 2-(4-((3-(2′-(1-methyl-1H-pyrazol-4-yl)-6′-(trifluoromethoxy)-[1,1′-biphenyl]-4-yl)ureido)methyl)phenyl)acetic acid] had an IC50 in assay [1] of 500 to 5000 nM. In assay [2], this molecule yielded an inhibition at 0.3 µM of 0 to 40%.

In assay [1], `O=C(O)Cc1ccc(CNC(=O)Nc2ccc(-c3ccccc3)cc2)cc1` [Example 1-23, 2-(4-((3-([1,1′-biphenyl]-4-yl)ureido)methyl)phenyl)acetic acid] came in with an IC50 of 5000 to 50000 nM. Besides, the inhibition at 0.3 µM in assay [2] fell in the range of 0 to 40%.

In assay [2], `O=C(O)COc1ccc(CNC(=O)Nc2cc(Cl)c(-c3ccccc3OC(F)(F)F)c(Cl)c2)cc1` [Example 1-26, 2-(4-((3-(2,6-dichloro-2′-(trifluoromethoxy)-[1,1′-biphenyl]-4-yl)ureido)methyl)phenoxy)acetic acid] registered an inhibition at 0.3 µM of 0 to 40%.

Molecule `CCS(=O)(=O)c1ccc(CNC(=O)Nc2cc(Cl)c(-c3ccccc3OC(F)(F)F)c(Cl)c2)cc1` [Example I-1, 1-(2,6-dichloro-2′-(trifluoromethoxy)-[1,1′-biphenyl]-4-yl)-3-(4-(ethylsulfonyl)benzyl)urea] gave an inhibition at 0.3 µM in assay [2] of 70 to 100%.
